Data from patent US8791102B2, “Acetanilide sphingosine-1-phosphate receptor antagonists” (Exelixis, Inc., priority 2008, dated 2014).

The molecules below were run against T1, human S1P1 receptors (Homo sapiens, UniProt P21453) (assay: S1P1R antagonist assay (fluorescent membrane potential dye, cAMP readout)). Conditions: HEK293 cells expressing human S1P1 receptors and CNG channel; 500 nM NECA; S1P1R agonist 10 nM; 90 minutes; read-out: EC50 or IC50 value.
T1 construct: host or cells: HEK293
T1 sequence (P21453 whole entry): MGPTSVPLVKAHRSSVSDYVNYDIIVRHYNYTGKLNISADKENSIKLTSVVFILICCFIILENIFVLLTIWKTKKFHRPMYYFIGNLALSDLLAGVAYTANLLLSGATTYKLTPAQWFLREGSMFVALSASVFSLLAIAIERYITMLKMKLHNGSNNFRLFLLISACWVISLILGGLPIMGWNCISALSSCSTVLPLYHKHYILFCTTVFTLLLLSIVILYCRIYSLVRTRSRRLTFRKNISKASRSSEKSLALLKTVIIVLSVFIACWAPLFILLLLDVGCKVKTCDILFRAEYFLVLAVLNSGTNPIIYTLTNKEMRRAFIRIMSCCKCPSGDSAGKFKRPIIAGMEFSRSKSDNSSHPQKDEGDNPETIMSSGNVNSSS
Assay type: cell-based
`O=C(Nc1ccc(Oc2ccc(F)cc2)cc1)[C@@H]1C[C@@H](Cc2cccc(Cl)c2)CN1C(=O)Cn1ccnn1` [Compound 263, (2S,4R)-1-(2-(1H-1,2,3-triazol-1-yl)acetyl)-4-(3-chlorobenzyl)-N-(4-(4-fluorophenoxy)phenyl)pyrrolidine-2-carboxamide] was tested, and the IC50 was ≤ 300 nM. `O=C(Nc1ccc(Oc2ccc(F)cc2)cc1)[C@@H]1C[C@@H](Cc2ccccc2F)CN1C(=O)Cn1ccnn1` [Compound 264, (2S,4R)-1-(2-(1H-1,2,3-triazol-1-yl)acetyl)-4-(2-fluorobenzyl)-N-(4-(4-fluorophenoxy)phenyl)pyrrolidine-2-carboxamide] was tested, and the IC50 was ≤ 300 nM. `CC1CN(CC(=O)N[C@@H](COCc2ccccc2)C(=O)Nc2ccc(Oc3ccc(F)cc3)cc2)CC(C)O1` (stereo partly drawn) [Compound 265, (2S)-3-(benzyloxy)-2-(2-(2,6-dimethylmorpholino)acetamido)-N-(4-(4-fluorophenoxy)phenyl)propanamide] was tested, and the IC50 was ≤ 300 nM. `O=C(CN1CCSCC1)N[C@@H](COCc1ccccc1)C(=O)Nc1ccc(Oc2ccc(F)cc2)cc1` [Compound 266, (S)-3-(benzyloxy)-N-(4-(4-fluorophenoxy)phenyl)-2-(2-thiomorpholinoacetamido)propanamide] gave an IC50 of 300 to 1000 nM. With `O=C(Nc1ccc(Oc2ccc(F)cc2)cc1)[C@@H]1C[C@@H](Cc2ccc(F)cc2F)CN1C(=O)Cn1ccnn1` [Compound 267, (2S,4R)-1-(2-(1H-1,2,3-triazol-1-yl)acetyl)-4-(2,4-difluorobenzyl)-N-(4-(4-fluorophenoxy)phenyl)pyrrolidine-2-carboxamide] the IC50 was ≤ 300 nM. In the case of `O=C(Nc1ccc(Oc2ccc(F)cc2)cc1)[C@@H]1C[C@@H](Cc2cccc(Cl)c2)CN1C(=O)Cn1nccn1` [Compound 268, (2S,4R)-1-(2-(2H-1,2,3-triazol-2-yl)acetyl)-4-(3-chlorobenzyl)-N-(4-(4-fluorophenoxy)phenyl)pyrrolidine-2-carboxamide], the IC50 is reported as ≤ 300 nM. Molecule `CC(=O)NC(COCc1ccccc1)C(=O)Nc1ccc(Oc2ccccc2)cc1` (centres unmarked) [Compound 269, N-(2-oxo-1-{[(phenylmethyl)oxy]methyl}-2-{[4-(phenyloxy)phenyl]amino}ethyl)acetamide] has an IC50 of 300 to 1000 nM. With `COc1ccc(C(=O)NC(COCc2ccccc2)C(=O)Nc2ccc(Oc3ccccc3)cc2)cc1` (centres unmarked) [Compound 270, 4-(methyloxy)-N-(2-oxo-1-{[(phenylmethyl)oxy]methyl}-2-{[4-(phenyloxy)phenyl]amino}ethyl)benzamide] the IC50 was > 1000 nM. With `O=C(Cc1ccc(OCc2ccccc2)cc1)NC(COCc1ccccc1)C(=O)Nc1ccc(Oc2ccccc2)cc1` (centres unmarked) [Compound 271, 4-benzyloxy-N-(2-oxo-1-{[(phenylmethyl)oxy]methyl}-2-{[4-(phenyloxy)phenyl]amino}ethyl)phenylacetamide] the IC50 was > 1000 nM. `COc1ccc(Br)c(C(=O)NC(COCc2ccccc2)C(=O)Nc2ccc(Oc3ccccc3)cc2)c1` (centres unmarked) [Compound 272, 2-bromo-5-(methyloxy)-N-(2-oxo-1-{[(phenylmethyl)oxy]methyl}-2-{[4-(phenyloxy)phenyl]amino}ethyl)benzamide] was tested, and the IC50 was > 1000 nM. `CCCC(=O)NC(COCc1ccccc1)C(=O)Nc1ccc(Oc2ccccc2)cc1` (centres unmarked) [Compound 273, N-(2-oxo-1-{[(phenylmethyl)oxy]methyl}-2-{[4-(phenyloxy)phenyl]amino}ethyl)butanamide] was tested, and the IC50 was > 1000 nM. In the case of `O=C(NC(COCc1ccccc1)C(=O)Nc1ccc(Oc2ccccc2)cc1)c1ccccc1Cl` (centres unmarked) [Compound 274, 2-chloro-N-(2-oxo-1-{[(phenylmethyl)oxy]methyl}-2-{[4-(phenyloxy)phenyl]amino}ethyl)benzamide], the IC50 is reported as > 1000 nM. `O=C(NC(COCc1ccccc1)C(=O)Nc1ccc(Oc2ccccc2)cc1)c1cccc(Cl)c1` (centres unmarked) [Compound 275, 3-chloro-N-(2-oxo-1-{[(phenylmethyl)oxy]methyl}-2-{[4-(phenyloxy)phenyl]amino}ethyl)benzamide] was tested, and the IC50 was > 1000 nM. With `O=C(NC(COCc1ccccc1)C(=O)Nc1ccc(Oc2ccccc2)cc1)c1ccc(Cl)cc1` (centres unmarked) [Compound 276, 4-chloro-N-(2-oxo-1-{[(phenylmethyl)oxy]methyl}-2-{[4-(phenyloxy)phenyl]amino}ethyl)benzamide] the IC50 was > 1000 nM. `O=C(NC(COCc1ccccc1)C(=O)Nc1ccc(Oc2ccccc2)cc1)C1CC1` (centres unmarked) [Compound 277, N-(2-oxo-1-{[(phenylmethyl)oxy]methyl}-2-{[4-(phenyloxy)phenyl]amino}ethyl)cyclopropylamide] was tested, and the IC50 was ≤ 300 nM. With `O=C(CCC1CCCC1)NC(COCc1ccccc1)C(=O)Nc1ccc(Oc2ccccc2)cc1` (centres unmarked) [Compound 278, N-(2-oxo-1-{[(phenylmethyl)oxy]methyl}-2-{[4-(phenyloxy)phenyl]amino}ethyl)-3-cyclopentylpropanamide] the IC50 was > 1000 nM. `Cc1ccc(C(=O)NC(COCc2ccccc2)C(=O)Nc2ccc(Oc3ccccc3)cc2)cc1C` (centres unmarked) [Compound 279, 3,4-dimethyl-N-(2-oxo-1-{[(phenylmethyl)oxy]methyl}-2-{[4-(phenyloxy)phenyl]amino}ethyl)benzamide] was tested, and the IC50 was > 1000 nM. For `COc1ccc(OC)c(CC(=O)NC(COCc2ccccc2)C(=O)Nc2ccc(Oc3ccccc3)cc2)c1` (centres unmarked) [Compound 280, N-(2-oxo-1-{[(phenylmethyl)oxy]methyl}-2-{[4-(phenyloxy)phenyl]amino}ethyl)-2,5-dimethoxyphenylacetamide], the IC50 was > 1000 nM. For `CCOc1ccc(C(=O)NC(COCc2ccccc2)C(=O)Nc2ccc(Oc3ccccc3)cc2)cc1` (centres unmarked) [Compound 281, 4-(ethyloxy)-N-(2-oxo-1-{[(phenylmethyl)oxy]methyl}-2-{[4-(phenyloxy)phenyl]amino}ethyl)benzamide], the IC50 was > 1000 nM. With `CCCCC(CC)C(=O)NC(COCc1ccccc1)C(=O)Nc1ccc(Oc2ccccc2)cc1` (centres unmarked) [Compound 282, N-(3-(benzyloxy)-1-oxo-1-(4-phenoxyphenylamino)propan-2-yl)-2-ethylhexanamide] the IC50 was > 1000 nM. With `O=C(NC(COCc1ccccc1)C(=O)Nc1ccc(Oc2ccccc2)cc1)c1ccco1` (centres unmarked) [Compound 283, N-(2-oxo-1-{[(phenylmethyl)oxy]methyl}-2-{[4-(phenyloxy)phenyl]amino}ethyl)furan-2-carboxamide] the IC50 was > 1000 nM. `COCC(=O)NC(COCc1ccccc1)C(=O)Nc1ccc(Oc2ccccc2)cc1` (centres unmarked) [Compound 284, N-(2-oxo-1-{[(phenylmethyl)oxy]methyl}-2-{[4-(phenyloxy)phenyl]amino}ethyl)-2-methoxyacetamide] was tested, and the IC50 was > 1000 nM. In the case of `COc1cccc(CC(=O)NC(COCc2ccccc2)C(=O)Nc2ccc(Oc3ccccc3)cc2)c1` (centres unmarked) [Compound 285, N-(2-oxo-1-{[(phenylmethyl)oxy]methyl}-2-{[4-(phenyloxy)phenyl]amino}ethyl)-3-methoxyphenylacetamide], the IC50 is reported as > 1000 nM. With `CCCC(C)C(=O)NC(COCc1ccccc1)C(=O)Nc1ccc(Oc2ccccc2)cc1` (centres unmarked) [Compound 286, 2-methyl-N-(2-oxo-1-{[(phenylmethyl)oxy]methyl}-2-{[4-(phenyloxy)phenyl]amino}ethyl)pentanamide] the IC50 was > 1000 nM. `CC(C)CCC(=O)NC(COCc1ccccc1)C(=O)Nc1ccc(Oc2ccccc2)cc1` (centres unmarked) [Compound 287, 4-methyl-N-(2-oxo-1-{[(phenylmethyl)oxy]methyl}-2-{[4-(phenyloxy)phenyl]amino}ethyl)pentanamide] was tested, and the IC50 was > 1000 nM. In the case of `O=C(NC(COCc1ccccc1)C(=O)Nc1ccc(Oc2ccccc2)cc1)c1ccc2ccccc2c1` (centres unmarked) [Compound 288, N-(2-oxo-1-{[(phenylmethyl)oxy]methyl}-2-{[4-(phenyloxy)phenyl]amino}ethyl)naphthalene-2-carboxamide], the IC50 is reported as > 1000 nM.
